Key:
[1] = biological target: MLKL (full length) (Homo sapiens (Human), UniProt Q8NB16); test: KINOMEscan binding assay, MLKL (full length); conditions: Table 36
Description: Kinase assays. For most assays, kinase-tagged T7 phage strains were grown in parallel in 24-well blocks in an E. coli host derived from the BL21 strain. E. coli were grown to log-phase and infected with T7 phage from a frozen stock (multiplicity of infection=0.4) and incubated with shaking at 32° C. until lysis (90-150 minutes).
The Hill Slope was set to −1.

[2] = system: U937 human histiocytic leukemia cell line; test: Cellular assay: inhibition of TSQ induced necroptosis (CellTitre-Glo); conditions: Homo sapiens, U-937; U937 cells, TSQ cocktail, 48 hours, Table 38; read-out: Inhibition of TSQ-induced necroptosis (IC50 cell-based assay)
Description: […] ASSAY: Screening compounds for inhibition of TSQ induced necroptosis, 384 well plate format.
Cell Line ID: U937 human histiocytic leukemia cell line.
Cell Concentration (cells/well): Final cell density is 20,000 cells per well.
Cell growth medium: HT-RPMI medium+7.4% Fetal Bovine Serum (FBS). Cells are cultured in Corning 150 cm^z tissue culture flasks with vented caps at 37° C./5% CO2.
Incubation: Plates were incubated at 37° C./5% CO2 in a humidified incubator for 48 hours following addition of compounds and death stimuli (TSQ cocktail).
Compound concentration: 36 μM starting concentration, 1:3 dilution, 10 point
DMSO final concentration (% v/v): 0.3%.
Compounds in TSQ cocktail (T: TNF; S: Smac mimetic; Q: Q-VD-OPh) and their final concentrations: • hTNF-Fc (100 ng/ml)—produced by standard procedures as shown in Bossen et al., J Biol Chem, 2006, 281(20), 13964-13971. • Compound A (500 nM)—Smac mimetic, Tetralogic and SYNthesis med chem • Q-VD-OPh (10 μM)—MP Biomedicals
The cellular assay was carried out according to the following steps: • 1. Each well was prepared by sequential addition of: • a. DMSO (control; columns 1-2 and 23-24) or compound in DMSO—addition was performed using acoustic transfer of nl volumes of stock compound to give final test concentrations of 36, 12, 4, 1.3, 0.44, 0.148, 0.049, 0.016, 0.005 and 0.002 μM. All wells were backfilled with DMSO to a final total volume in the well of 100 nl. • b. Following compound/DMSO addition in step (a), 40 μL of cell suspension (5×10^5 cells/mL) was added to provide a final cell concentration of 20,000 cells per well, and • c. Following cell addition in step (b), 10 μL of 5×TSQ cocktail (except to positive controls; […]) was added to each well. • 2. After 48 hours, plate was removed from the 37° C. incubator and equilibrated to room temperature for 45 minutes. • 3. 15 μL of room temperature CellTitre-Glo2™ (Promega™) was added to each well. • 4. Shook plates for 2 minutes (˜600 rpm) and incubated at room temperature for 15 minutes to allow signal to stabilise. • 5. Read luminescence readout on a plate reader.
Percent viability was calculated for each compound according to equation (2):
[formula] • wherein • RawData is the readout of any cell containing a compound of the invention • TA is the total activity provided by the luminescence readout from DMSO only wells (columns 2 and 24)=100% viability • NSA is the non-specific activity provided by DMSO+TSQ wells (columns 1 and 23)=0% viability
Curve fitting: 10-point titration curves are fitted with the 4-parameter logistic nonlinear regression model and the IC50 reported is the inflection point of the curve.
Analysis: Data was loaded into Dotmatics™ and visualised using the Tibco® Spotfire™ software. 10 points titration curves were fitted with the 4-parameter logistic nonlinear regression model and the IC50 reported reflect the inflection point of the curve for curve fitting.
Assay involving the TSQ cocktail (T: TNF; S: Smac mimetic; Q: Q-VD-OPh): TSQ treatment ensures that cells specifically undergo necroptotic cell death. TNF activates the TNF receptor, Smac mimetic directs the signal away from proinflammatory signaling and toward the RIP1/RIP3-mediated cell death pathways, and Q-VD-OPh ensures that the apoptotic response is blocked leaving only the programmed necrosis response. The compounds' activity (solution in DMSO) tested in this TSQ-induced assay was evaluated by determining the number of viable cells in culture by measuring the amount of ATP present as measured by CelltiterGlo.

[3] = system: U937 cells; test: Counter screen: cell viability without TSQ cocktail (off-target effect); set-up: species or system human; conditions: Homo sapiens, U-937, Table 38, read-out: Off-target effect (IC50 cell-based assay)
Description: Counter screen: In parallel, all compounds were tested for their ability to affect cell viability. The same U937 cells were treated with compound in DMSO without the TSQ cocktail. This counter screen enabled evaluation of off-target effects. In this case, cell viability was measured by CelltiterGlo.

Sequence of MLKL (full length) (Q8NB16 whole entry): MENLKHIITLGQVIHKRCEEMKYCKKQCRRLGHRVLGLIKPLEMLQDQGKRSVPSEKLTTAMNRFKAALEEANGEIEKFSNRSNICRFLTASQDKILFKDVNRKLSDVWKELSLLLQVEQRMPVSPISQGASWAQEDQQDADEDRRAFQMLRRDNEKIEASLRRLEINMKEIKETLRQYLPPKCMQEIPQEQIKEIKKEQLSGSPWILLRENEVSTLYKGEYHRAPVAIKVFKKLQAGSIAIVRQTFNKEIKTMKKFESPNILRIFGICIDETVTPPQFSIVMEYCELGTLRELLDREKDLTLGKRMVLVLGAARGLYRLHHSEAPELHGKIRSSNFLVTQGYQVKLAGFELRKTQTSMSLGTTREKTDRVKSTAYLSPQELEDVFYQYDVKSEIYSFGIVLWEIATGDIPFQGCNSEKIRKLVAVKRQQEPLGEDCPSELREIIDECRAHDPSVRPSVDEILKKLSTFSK

`Cc1ncsc1-c1ccc(CNC(=O)[C@@H]2C[C@@H](O)CN2C(=O)[C@@H](NC(=O)COCCOc2cc(Nc3[nH]nc(-c4ccc(NS(=O)(=O)C(F)F)cc4)c3C(N)=O)ccn2)C(C)(C)C)cc1` [Compound 1012, 3-[4-(difluoromethanesulfonamido)phenyl]-5-({2-[2-({[(2S)-1-[(2S,4R)-4-hydroxy-2-({[4-(4-methyl-1,3-thiazol-5-yl)phenyl]methyl}carbamoyl)pyrrolidin-1-yl]-3,3-dimethyl-1-oxobutan-2-yl]carbamoyl}methoxy)ethoxy]pyridin-4-yl}amino)-1H-pyrazole-4-carboxamide] was tested, and the Kd [1] was < 10 nM, the IC50 [2] was > 10000 nM and the IC50 [3] was > 10000 nM.

With `CCS(=O)(=O)Nc1ccc(-c2n[nH]c(Nc3ccnc(OCCCCC(=O)N[C@H](C(=O)N4C[C@@H](O)C[C@H]4C(=O)NCc4ccc(-c5scnc5C)cc4)C(C)(C)C)c3)c2C(N)=O)cc1` [Compound 1014, 3-(4-ethanesulfonamidophenyl)-5-{[2-(4-{[(2S)-1-[(2S,4S)-4-hydroxy-2-({[4-(4-methyl-1,3-thiazol-5-yl)phenyl]methyl}carbamoyl)pyrrolidin-1-yl]-3,3-dimethyl-1-oxobutan-2-yl]carbamoyl}butoxy)pyridin-4-yl]amino}-1H-pyrazole-4-carboxamide] the Kd [1] was < 10 nM, the IC50 [2] was > 10000 nM and the IC50 [3] was > 10000 nM.

With `Cc1ncsc1-c1ccc(CNC(=O)[C@@H]2C[C@@H](O)CN2C(=O)[C@@H](NC(=O)CCCCOc2cc(Nc3[nH]nc(-c4ccc(NS(=O)(=O)C(F)F)cc4)c3C(N)=O)ccn2)C(C)(C)C)cc1` [Compound 1017, 3-[4-(difluoromethanesulfonamido)phenyl]-5-{[2-(4-{[(2S)-1-[(2S,4R)-4-hydroxy-2-({[4-(4-methyl-1,3-thiazol-5-yl)phenyl]methyl}carbamoyl)pyrrolidin-1-yl]-3,3-dimethyl-1-oxobutan-2-yl]carbamoyl}butoxy)pyridin-4-yl]amino}-1H-pyrazole-4-carboxamide] the Kd [1] was < 10 nM, the IC50 [2] was 1000 to 10000 nM and the IC50 [3] was > 10000 nM.

With `CCS(=O)(=O)Nc1ccc(-c2n[nH]c(Nc3ccnc(OCCCCCCCCCCCCCC(=O)N[C@H](C(=O)N4C[C@H](O)C[C@H]4C(=O)NCc4ccc(-c5scnc5C)cc4)C(C)(C)C)c3)c2C(N)=O)cc1` [Compound 1018, 3-(4-ethanesulfonamidophenyl)-5-({2-[(13-{[(2S)-1-[(2S,4R)-4-hydroxy-2-({[4-(4-methyl-1,3-thiazol-5-yl)phenyl]methyl}carbamoyl)pyrrolidin-1-yl]-3,3-dimethyl-1-oxobutan-2-yl]carbamoyl}tridecyl)oxy]pyridin-4-yl}amino)-1H-pyrazole-4-carboxamide] the Kd [1] was 10 to 1000 nM, the IC50 [2] was > 10000 nM and the IC50 [3] was > 10000 nM.

`CCS(=O)(=O)Nc1ccc(-c2n[nH]c(Nc3cnc(OCCCCC(=O)N[C@H](C(=O)N4C[C@H](O)C[C@H]4C(=O)NCc4ccc(-c5scnc5C)cc4)C(C)(C)C)cn3)c2C(N)=O)cc1` [Compound 1022, 3-(4-ethanesulfonamidophenyl)-5-{[5-(4-{[(2S)-1-[(2S,4R)-4-hydroxy-2-({[4-(4-methyl-1,3-thiazol-5-yl)phenyl]methyl}carbamoyl)pyrrolidin-1-yl]-3,3-dimethyl-1-oxobutan-2-yl]carbamoyl}butoxy)pyrazin-2-yl]amino}-1H-pyrazole-4-carboxamide] was tested, and the Kd [1] was < 10 nM, the IC50 [2] was < 1000 nM and the IC50 [3] was > 10000 nM.

With `Cc1ncsc1-c1ccc(CNC(=O)[C@@H]2C[C@@H](O)CN2C(=O)[C@@H](NC(=O)CCn2ccc(Nc3[nH]nc(-c4ccc(NS(=O)(=O)C(F)F)c(O[C@@H](C)c5ccc(F)cc5)c4)c3C(N)=O)n2)C(C)(C)C)cc1` [Compound 1032, 3-[4-(difluoromethanesulfonamido)-3-[(1S)-1-(4-fluorophenyl)ethoxy]phenyl]-5-{[1-(2-{[(2S)-1-[(2S,4R)-4-hydroxy-2-({[4-(4-methyl-1,3-thiazol-5-yl)phenyl]methyl}carbamoyl)pyrrolidin-1-yl]-3,3-dimethyl-1-oxobutan-2-yl]carbamoyl}ethyl)-1H-pyrazol-3-yl]amino}-1H-pyrazole-4-carboxamide] the Kd [1] was < 10 nM, the IC50 [2] was > 10000 nM and the IC50 [3] was > 10000 nM.

For `Cc1ncsc1-c1ccc(CNC(=O)[C@@H]2C[C@@H](O)CN2C(=O)[C@@H](NC(=O)CCCn2ccc(Nc3[nH]nc(-c4ccc(NS(=O)(=O)C(F)F)c(O[C@@H](C)c5ccc(F)cc5)c4)c3C(N)=O)n2)C(C)(C)C)cc1` [Compound 1033, 3-[4-(difluoromethanesulfonamido)-3-[(1S)-1-(4-fluorophenyl)ethoxy]phenyl]-5-{[1-(3-{[(2S)-1-[(2S,4R)-4-hydroxy-2-({[4-(4-methyl-1,3-thiazol-5-yl)phenyl]methyl}carbamoyl)pyrrolidin-1-yl]-3,3-dimethyl-1-oxobutan-2-yl]carbamoyl}propyl)-1H-pyrazol-3-yl]amino}-1H-pyrazole-4-carboxamide], the Kd [1] was < 10 nM, the IC50 [2] was 1000 to 10000 nM and the IC50 [3] was > 10000 nM.

In the case of `Cc1ncsc1-c1ccc(CNC(=O)[C@@H]2C[C@@H](O)CN2C(=O)[C@@H](NC(=O)COCCn2ccc(Nc3[nH]nc(-c4ccc(NS(=O)(=O)C(F)F)c(O[C@@H](C)c5ccc(F)cc5)c4)c3C(N)=O)n2)C(C)(C)C)cc1` [Compound 1036, 3-[4-(difluoromethanesulfonamido)-3-[(1S)-1-(4-fluorophenyl)ethoxy]phenyl]-5-({1-[2-({[(2S)-1-[(2S,4R)-4-hydroxy-2-({[4-(4-methyl-1,3-thiazol-5-yl)phenyl]methyl}carbamoyl)pyrrolidin-1-yl]-3,3-dimethyl-1-oxobutan-2-yl]carbamoyl}methoxy)ethyl]-1H-pyrazol-3-yl}amino)-1H-pyrazole-4-carboxamide], the Kd [1] is reported as < 10 nM, the IC50 [2] is reported as 1000 to 10000 nM and the IC50 [3] is reported as > 10000 nM.

`Cc1ncsc1-c1ccc(CNC(=O)[C@@H]2C[C@@H](O)CN2C(=O)[C@@H](NC(=O)COCCOCCn2ccc(Nc3[nH]nc(-c4ccc(NS(=O)(=O)C(F)F)c(O[C@@H](C)c5ccc(F)cc5)c4)c3C(N)=O)n2)C(C)(C)C)cc1` [Compound 1037, 3-[4-(difluoromethanesulfonamido)-3-[(1S)-1-(4-fluorophenyl)ethoxy]phenyl]-5-[(1-{2-[2-({[(2S)-1-[(2S,4R)-4-hydroxy-2-({[4-(4-methyl-1,3-thiazol-5-yl)phenyl]methyl}carbamoyl)pyrrolidin-1-yl]-3,3-dimethyl-1-oxobutan-2-yl]carbamoyl}methoxy)ethoxy]ethyl}-1H-pyrazol-3-yl)amino]-1H-pyrazole-4-carboxamide] was tested, and the Kd [1] was < 10 nM, the IC50 [2] was < 1000 nM and the IC50 [3] was > 10000 nM.

With `CCS(=O)(=O)Nc1ccc(-c2n[nH]c(Nc3ccc(C(=O)OCCOCC(=O)N[C@H](C(=O)N4C[C@H](O)C[C@H]4C(=O)NCc4ccc(-c5scnc5C)cc4)C(C)(C)C)cn3)c2C(N)=O)cc1O[C@@H](C)c1ccc(F)cc1` [Compound 1046, 2-({[(2S)-1-[(2S,4R)-4-hydroxy-2-({[4-(4-methyl-1,3-thiazol-5-yl)phenyl]methyl}carbamoyl)pyrrolidine-1-yl]-3,3-dimethyl-1-oxobutan-2-yl]carbamoyl}methoxy)ethyl 6-[(4-carbamoyl-3-{4-ethanesulfonamido-3-[(1S)-1-(4-fluorophenyl)ethoxy]phenyl}-1H-pyrazol-5-yl)amino]pyridine-3-carboxylate] the Kd [1] was 10 to 1000 nM, the IC50 [2] was < 1000 nM and the IC50 [3] was > 10000 nM.

Source: patent publication US20250074891A1 (Anaxis Pharma Pty Ltd., priority 2021, published 2025)
